Data: PubChem BioAssay AID330 (DTP/NCI, 2004)
Values joined by “and” are separate entries in the source; they are usually repeats but may differ in a detail not shown here. Equal entries are not always repeated. Inconclusive results and toxic doses are left out. Rule for the calls: active = survival T/C of 150% or more; inactive = T/C below 125% in these data.

Test system: P388 leukemia ip, CD2F1 mice, survival T/C
Assay: NCI In Vivo Anticancer Drug Screen. Data for tumor model P388 Leukemia (intraperitoneal) in CD2F1 (CDF1) mice
Details: endpoint: median survival time, higher = longer survival
Summary of the method: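 Mice carrying the transplanted tumor received test compound or vehicle. Survival was recorded in each group, and the value is the treated-group measurement divided by that of the vehicle-treated control group.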

[1] = dose: 50.0 mg/kg/injection, schedule: Q01DX005 (ip), vehicle: Klucel (hydroxypropylcellulose) (HPC)
[2] = dose: 100.0 mg/kg/injection, schedule: Q01DX005 (ip), vehicle: Klucel (hydroxypropylcellulose) (HPC)
[3] = dose: 50.0 mg/kg/injection, schedule: Q01DX009 (ip), vehicle: saline
[4] = dose: 100.0 mg/kg/injection, schedule: Q01DX009 (ip), vehicle: saline
[5] = dose: 50.0 mg/kg/injection, schedule: Q01DX005 (ip), vehicle: saline with Tween-80
[6] = dose: 100.0 mg/kg/injection, schedule: Q01DX005 (ip), vehicle: saline with Tween-80
[7] = dose: 200.0 mg/kg/injection, schedule: Q01DX005 (ip), vehicle: saline with Tween-80
[8] = dose: 200.0 mg/kg/injection, schedule: Q01DX005 (ip), vehicle: Klucel (hydroxypropylcellulose) (HPC)
[9] = dose: 100.0 mg/kg/injection, schedule: Q01DX001 (ip), vehicle: Klucel (hydroxypropylcellulose) (HPC)
[10] = dose: 200.0 mg/kg/injection, schedule: Q01DX001 (ip), vehicle: Klucel (hydroxypropylcellulose) (HPC)
[11] = dose: 400.0 mg/kg/injection, schedule: Q01DX001 (ip), vehicle: Klucel (hydroxypropylcellulose) (HPC)

Measured: T/C

OCCN1CCN(CC/C=C2/c3ccccc3Sc3ccc(Cl)cc32)CC1
inactive: dose: 0.39 mg/kg/injection, schedule: Q01DX005 (ip), vehicle: saline 100 % of control | dose: 0.78 mg/kg/injection, schedule: Q01DX005 (ip), vehicle: saline 100 % of control | dose: 1.56 mg/kg/injection, schedule: Q01DX005 (ip), vehicle: saline 105 % of control | dose: 6.25 mg/kg/injection, schedule: Q01DX005 (ip), vehicle: saline 123 % of control | dose: 12.5 mg/kg/injection, schedule: Q04DX003 (ip), vehicle: saline 118 % of control | dose: 25.0 mg/kg/injection, schedule: Q04DX003 (ip), vehicle: saline 122 % of control | dose: 33.0 mg/kg/injection, schedule: Q04DX003 (ip), vehicle: saline 90 % of control | dose: 50.0 mg/kg/injection, schedule: Q04DX003 (ip), vehicle: saline 90 % of control | dose: 75.0 mg/kg/injection, schedule: Q04DX003 (ip), vehicle: saline 100 % of control

CCOP(=O)(CSc1ccccc1)NC1CCCCC1 (centres undefined)
inactive: dose: 25.0 mg/kg/injection, schedule: Q01DX005 (ip), vehicle: Klucel (hydroxypropylcellulose) (HPC) 94 % of control | [1] 94 % of control | [2] 88 % of control

C/C(=N\O)c1cc(/C(C)=N/O)cc(/C(C)=N/O)c1
inactive: [3] 108 % of control | [4] 92 % of control

COC(=O)/C=C(/Nc1c(Cl)sc2ccccc2c1=O)C(=O)OC
inactive: [5] 97 % of control | [6] 97 % of control | [7] 95 % of control

CCCCCCCCCCCCCCCC[N+](C)(C)C(C)c1ccccc1 (centres undefined)
inactive: dose: 0.78 mg/kg/injection, schedule: Q04DX003 (ip), vehicle: saline with Tween-80 104 % of control and 106 % of control | dose: 1.56 mg/kg/injection, schedule: Q04DX003 (ip), vehicle: saline with Tween-80 116 % of control and 118 % of control | dose: 6.25 mg/kg/injection, schedule: Q04DX003 (ip), vehicle: saline with Tween-80 117 % of control

O=C(CC(c1ccccc1Cl)C(C(=O)O)c1ccccc1)c1ccccc1 (centres undefined)
inactive: [1] 100 % of control | [2] 91 % of control | [8] 99 % of control

C=C1C(=O)CCC1C(=O)O (centres undefined)
inactive: dose: 178.0 mg/kg/injection, schedule: Q01DX001 (ip), vehicle: saline 100 % of control | dose: 266.0 mg/kg/injection, schedule: Q01DX001 (ip), vehicle: saline 109 % of control | dose: 400.0 mg/kg/injection, schedule: Q01DX001 (ip), vehicle: saline 114 % of control | dose: 600.0 mg/kg/injection, schedule: Q01DX001 (ip), vehicle: saline 118 % of control | dose: 900.0 mg/kg/injection, schedule: Q01DX001 (ip), vehicle: saline 112 % of control

OCC1OC(n2ccc3c(Cl)ncnc32)C(O)C1O (centres undefined)
inactive: dose: 6.25 mg/kg/injection, schedule: Q01DX005 (ip), vehicle: suspension in saline 110 % of control | dose: 12.5 mg/kg/injection, schedule: Q01DX005 (ip), vehicle: suspension in saline 117 % of control | dose: 25.0 mg/kg/injection, schedule: Q01DX005 (ip), vehicle: suspension in saline 96 % of control

Nc1ncnc2c1ncn2C1CC(O)C(COC(c2ccccc2)(c2ccccc2)c2ccccc2)O1 (centres undefined)
inactive: [1] 95 % of control | [2] 91 % of control | [8] 86 % of control

O=c1oc2c(cc1Cl)CCc1ccccc1-2
inactive: [5] 104 % of control | [6] 102 % of control | [7] 97 % of control

OCCNc1cc(Cl)c(N=C2N(Cc3ccccc3)CCN2Cc2ccccc2)c(Cl)c1
inactive: [1] 102 % of control | [2] 97 % of control | [8] 100 % of control

CCN(CC)c1cc(C)c(Cc2c(OC)ccc3ccccc23)cc1C
inactive: [1] 92 % of control | [2] 92 % of control | [8] 99 % of control

O=c1ccocc1CN1CCCCC1
inactive: [3] 100 % of control | [4] 99 % of control | dose: 200.0 mg/kg/injection, schedule: Q01DX009 (ip), vehicle: saline 99 % of control

COC(=O)CC1=NNC(=O)C1
inactive: [9] 93 % of control | [10] 99 % of control | [11] 100 % of control

Cc1ccc(OP(=O)(Oc2ccc(C)cc2)Oc2ccc(C)cc2)cc1.Cc1ccc(OP(=O)(Oc2ccc(C)cc2)Oc2ccc(C)cc2)cc1.[Cl][Co][Cl]
inactive: [9] 96 % of control | [10] 100 % of control | [11] 92 % of control

O=C1C(CCl)(CCl)CCC1(CCl)CCl
inactive: [5] 100 % of control | [6] 105 % of control | [7] 94 % of control

Cc1cc(Cl)c(C)c(Cl)c1Cl
inactive: dose: 100.0 mg/kg/injection, schedule: Q04DX003 (ip), vehicle: saline with Tween-80 95 % of control | dose: 200.0 mg/kg/injection, schedule: Q04DX003 (ip), vehicle: saline with Tween-80 95 % of control | dose: 400.0 mg/kg/injection, schedule: Q04DX003 (ip), vehicle: saline with Tween-80 91 % of control

CCOC(=O)N(O)c1ccc(C(N)=O)cc1
inactive: dose: 50.0 mg/kg/injection, schedule: Q01DX009 (ip), vehicle: saline with Tween-80 100 % of control | dose: 100.0 mg/kg/injection, schedule: Q01DX009 (ip), vehicle: saline with Tween-80 97 % of control | dose: 200.0 mg/kg/injection, schedule: Q01DX009 (ip), vehicle: saline with Tween-80 108 % of control

O=[N+]([O-])c1ccc(SNc2ccc(NSc3ccc([N+](=O)[O-])cc3)cc2)cc1
inactive: dose: 12.5 mg/kg/injection, schedule: Q01DX001 (ip), vehicle: saline with Tween-80 95 % of control | dose: 25.0 mg/kg/injection, schedule: Q01DX001 (ip), vehicle: saline with Tween-80 100 % of control | dose: 50.0 mg/kg/injection, schedule: Q01DX001 (ip), vehicle: saline with Tween-80 100 % of control

O=C1CSC(c2ccc(Cl)c(Cl)c2)N1c1nncs1 (centres undefined)
inactive: [5] 103 % of control | [6] 93 % of control | [7] 99 % of control

COc1ccc(/C=C/c2ccc3ccccc3[n+]2C)c(OC)c1OC
inactive: dose: 0.63 mg/kg/injection, schedule: Q01DX009 (ip), vehicle: Klucel (hydroxypropylcellulose) (HPC) 107 % of control | dose: 1.25 mg/kg/injection, schedule: Q01DX009 (ip), vehicle: Klucel (hydroxypropylcellulose) (HPC) 110 % of control | dose: 5.0 mg/kg/injection, schedule: Q01DX009 (ip), vehicle: Klucel (hydroxypropylcellulose) (HPC) 107 % of control

CC(=O)OCCNc1n[nH]c(=O)c2ccncc12
inactive: dose: 30.0 mg/kg/injection, schedule: Q01DX005 (ip), vehicle: saline with Tween-80 95 % of control | dose: 60.0 mg/kg/injection, schedule: Q01DX005 (ip), vehicle: saline with Tween-80 93 % of control | dose: 120.0 mg/kg/injection, schedule: Q01DX005 (ip), vehicle: saline with Tween-80 101 % of control | dose: 240.0 mg/kg/injection, schedule: Q01DX005 (ip), vehicle: saline with Tween-80 113 % of control
